# Measured values as given in PMC6153520, “Proteasome inhibition and mechanism of resistance to a synthetic, library-based hexapeptide” (Investigational New Drugs, 2018).
# Where a SMILES comes first, the peptide text is derived from it. [ ]: non-standard residue; d: D form. The star is where a group is joined. His(τ-Bzl) = N[C@@H](Cc1cn(Cc2ccccc2)cn1)C(=O)O; Nle = CCCC[C@H](N)C(=O)O; NHBn = c1ccc(CN*)cc1; Bn = c1ccc(C*)cc1; OtBu = CC(C)(C)O*; tBu = CC(C)(C)*
# How the values were obtained:
# [1] = test system: THP1/BTZ50; assay: Growth inhibition assay (72 h, trypan blue); assay type: cell-based, human; details: relative to IC50 in THP1/WT
# Method: (§1) Human monocytic/macrophage THP1 cells (ATTC, Manassas, USA) were cultured in RPMI-1640 medium supplemented with 5% fetal calf serum, 20 mM HEPES, 2 mM glutamine and 100 μg/ml penicillin/ streptomycin at 5% CO2 and 37 °C. Cell cultures were seeded at a density of 3 × 10^5 cells/ml and refreshed twice weekly. […] Some specific experiments also included THP1/BTZ100 cells that were cultured in the absence of BTZ for 6 months (further designated as THP1/BTZ (−100) cells). Mouse thymoma EL4 and human multiple myeloma H929 cells were cultured in RPMI-1640 medium supplemented with 8% fetal calf serum and 100 μg/ml penicillin/streptomycin at 5% CO2 and 37 °C.
# (§2) Evaluation of drug sensitivity was carried out as described before. Cells were seeded at an initial density of 1.25 × 10^5 cells/ml in individual wells of a 24-well plate containing up to 50 μl of drug solutions. Inhibition of cell growth was determined after 72 h of incubation at 37 °C by determining the number of viable cells […] using trypan blue exclusion. The drug concentration required to inhibit cell growth by 50% compared to untreated controls was defined as the IC50.
# [2] = test system: THP1/BTZ200; assay: Growth inhibition assay (72 h, trypan blue); assay type: cell-based, human; details: relative to IC50 in THP1/WT
# Method: as §1, §2
# [3] = test system: Multidrug Resistance-associated Protein 1 (MRP1/ABCC1); parameters: method as in PMID 11289130; details: ref [32]; cited from earlier work
# [4] = test system: bortezomib-resistant cells (THP1/BTZ200); assay: Western blot, accumulation of ubiquitinated proteins; assay type: cell-based, human; details: 24 h, same concentrations as in THP1/WT
# Method: (§3) Western blot analysis to determine protein levels of (i) β1, β2 and β5 proteasome subunits and (ii) the accumulation of ubiquitinated proteins after treatment with 4A6 was performed essentially as described previously. Cells were harvested in the mid-log phase of growth and washed 3 times with ice-cold buffered saline pH 7.4. Total cell lysates of 5 × 10^6 cells were prepared by resuspension in 500 μl lysis buffer containing: 50 mM Tris-HCl (pH 7.6), 5 mM dithiotreitol, 20 μl PIC (Protease Inhibitor Cocktail; 1 tablet/ml H2O), 20% glycerol and 0.5% NP-40. The suspension was sonicated (MSE sonicator, amplitude 7, for 3 × 5 s with 20 s time intervals at 4 °C) and centrifuged in an Eppendorf micro centrifuge (5 min, 12,000 rpm, 4 °C). Protein content of the supernatant was determined by the Bio-Rad protein assay. 20–30 μg of total cell lysates were fractionated on a 10% polyacrylamide gel containing SDS and transferred onto a PVDF membrane. The membranes were pre-incubated overnight at 4 °C in blocking buffer (5% Bio-Rad Blocker in TBS-T; 10 mM Tris-HCl, pH 8.0, 0.15 M NaCl, 0.1% Tween-20) to prevent non-specific antibody binding. After blocking, the membranes were incubated for 1 h at room temperature with primary antibodies for proteasome subunit β1 (1:1000, PW8140), β2 (1:1000, PW8145) and β5 (1:1000, PW8895) or ubiquitin (1:1000, Santa-Cruz, SC-8017). An antibody to α-tubulin was used (1:1000, Santa Cruz, sc-8035) to check and normalize for any loading differences. After 3 washing steps with TBS-T, the membranes were incubated for 1 h with HRP-labelled donkey-anti-rabbit (1:6000, Amersham, UK) or goat-anti-mouse (1:6000, Dako, Glostrup, Denmark) as secondary antibody. Detection of antibody binding was followed by chemoluminescence using Supersignal (Pierce Biotechnology, Rockford, USA) according to the manufacturers’ instructions. […] The signal intensity was determined densitometrically using Quantity One software (Bio-Rad) and was expressed relative to the intensity of the α-tubulin signal.
# [5] = test system: THP1/WT cells; assay: as above; assay type: cell-based, human; details: 24 h exposure
# Method: as §3
# [6] = test system: proteasome β1 subunit; assay: Western blot, proteasome subunit expression; assay type: cell-based, human; details: 0.1–10 μM, 24 h; THP1/WT, THP1/BTZ100, THP1/BTZ (−100)
# Method: as §3
# [7] = test system: proteasome β2 subunit; assay: Western blot, proteasome subunit expression; assay type: cell-based, human; details: 0.1–10 μM, 24 h; THP1/WT, THP1/BTZ100, THP1/BTZ (−100)
# Method: as §3
# [8] = test system: proteasome β5 subunit; assay: Western blot, proteasome subunit expression; assay type: cell-based, human; details: 10 μM 4A6, 24 h; THP1/WT, THP1/BTZ100 and THP1/BTZ (−100); densitometry
# Method: as §3
# [9] = test system: THP1 cells; assay: Growth inhibition with or without Ruthenium Red; assay type: cell-based, human; details: 72 h, with or without 25 μM Ruthenium Red
# Method: as §2
# [10] = target: T1, proteasome purified from bovine liver (Bos taurus, UniProt Q32KL2); assay: 4A6 cleavage assay (MALDI-TOF); assay type: biochemical; details: 1 μg proteasome, 1 μg 4A6, pH 8.5, 45 °C, 16 h
# T1 construct: Proteasome was purified from bovine liver as described previously; from tissue; host or cells: bovine liver
# Method: Proteasome was purified from bovine liver as described previously. For digestion assays, 1 μg proteasome was incubated with 1 μg 4A6 in 50 μl of 50 mM Tris-HCl buffer pH 8.5 at 45 °C for 16 h. Subsequently, the reaction mixture was lyophilized and peptides purified using reversed-phase ZipTip®C18 tips (Millipore). The purified peptide mixture was mixed in a 1:1 ratio with 10 mg/ml 2,5-dihydroxybenzoic acid (DHB, Bruker Daltonik) matrix solution in 0.1% TFA and spotted onto a MALDI (matrix assisted laser desorption/ ionization) target plate. MALDI-TOF analysis was performed on an Autoflex, linear MALDI-TOF-MS (Bruker Daltonik GmbH, Bremen, Germany). Spectra were analyzed with flexAnalysis software (Bruker Daltonik).
# [11] = target: T2, chymotrypsin-like proteasome activity (Homo sapiens, UniProt P28074); assay: Proteasome-Glo cell-based assay in intact THP1 cells
# T2 construct: chymotrypsin-like proteasome activity in intact THP1 cells after 1 h exposure; endogenous in cells; host or cells: THP1 (wild type)
smiles,measurement,setting,value
"CCCC[C@H](NC(=O)[C@@H](NC(=O)[C@H](Cc1cn(Cc2ccccc2)cn1)NC(=O)[C@@H](NC(C)=O)[C@@H](C)OC(C)(C)C)[C@@H](C)OCc1ccccc1)C(=O)N[C@@H](CCC(=O)OC(C)(C)C)C(=O)NCC(=O)NCc1ccccc1 [4A6, Ac-Thr(tBu)-His(Bzl)-Thr(Bzl)-Nle-Glu(OtBu)-Gly-Bza] (Ac-T(tBu)[His(τ-Bzl)]T(Bn)[Nle]E(OtBu)G-NHBn)",[Resistance Factor] THP1/BTZ50,[1],44
same,[Resistance Factor] THP1/BTZ200,[2],287
same,ability to reverse efflux pump MDR (ABCC1),[3],lacked the ability to reverse efflux pump MDR
same,substrate of MDR efflux transporter ABCC1,[3],substrate
same,accumulation of ubiquitinated proteins,[4],did not provoke any accumulation of ubiquitinated proteins
same,accumulation of ubiquitinated proteins,[5],marked accumulation of ubiquitinated proteins
same,effect on expression of the β1 proteasome subunit,[6],No significant effects
same,effect on expression of the β2 proteasome subunit,[7],No significant effects
same,increase in β5 subunit induction vs drug-free controls,[8],3–5 fold
same,effect of Ruthenium Red on growth inhibitory activity (protection),[9],no effect
same,proteolytic cleavage by purified proteasomes,[10],predominantly cleaved at the P4-P5 position
same,"potency fold lower than BTZ, chymotrypsin-like proteasome activity",[11],28 fold
